Data as given in patent publication US11613556B2, “Oxysterols and methods of use thereof” (Sage Therapeutics, Inc., priority 2016, dated 2023).
Like-named read-outs stand apart in the source and are kept apart here.

How the values were obtained:
[1] = target: GluN1/GluN2A glutamate receptors (human GRIN1/GRIN2A) expressed in HEK293 cells (Homo sapiens (Human), UniProt Q05586+Q12879); assay: Whole-cell patch clamp of mammalian cells (Ionworks Barracuda), positive allosteric modulation, GluN1/GluN2A; format: cell-based; details: for Emax: read-out: GluN2A PCA EMax (%)
Experimental: (§1) NMDA potentiation in mammalian cells which expressed NMDA receptors was assessed using the automatic patch-clamp system can be used determine the NAM activity of compounds as described below. An whole cell patch-clamp system can be used determine the PAM activity of compounds as described below.
(§2) The measurements were performed using Ion Works Barracuda platform following this procedure:
(§3) Electrophysiological Procedures: • a) Intracellular solution (mM): 50 mM CsCl, 90 mM CsF, 2 mM MgCl2, 5 mM EGTA, 10 mM HEPES. Adjust to pH 7.2 with CsOH. • b) Extracellular solution, HB-PS (composition in mM): NaCl, 137; KCl, 1.0; CaCl2, 5; HEPES, 10; Glucose, 10; pH adjusted to 7.4 with NaOH (refrigerated until use). • c) Holding potential: −70 mV, potential during agonist/PAM application: −40 mV.
(§4) Recording Procedure: • a) Extracellular buffer will be loaded into the PPC plate wells (11 μL per well). Cell suspension will be pipetted into the wells (9 μL per well) of the PPC planar electrode. • b) Whole-cell recording configuration will be established via patch perforation with membrane currents recorded by on-board patch clamp amplifiers. • c) Two recordings (scans) will be performed. First, during pre-application of test article alone (duration of pre-application—5 min) and second, during test articles and agonist (EC20 L-glutamate and 30 μM glycine) co-application to detect positive modulatory effects of the test article.
(§5) Test Article Administration: The first pre-application will consist of the addition of 20 μL of 2× concentrated test article solution and, second, of 20 μL of 1× concentrated test article and agonist at 10 μL/s (2 second total application time).
(§6) Potentiating Effect of Positive Allosteric Modulators (PAM) on the Channel
(§7) The maximal amplitude of the evoked currents are measured and defined as Peak Current Amplitude (PCA).

[2] = target: GluN2B glutamate receptors expressed in mammalian cells (Homo sapiens (Human), UniProt Q05586+Q13224); assay: Whole-cell patch clamp of mammalian cells (Ionworks Barracuda), positive allosteric modulation, GluN2B; format: cell-based; details: for Emax: read-out: GluN2B PCA EMax (%)
Experimental: as §1, §2, §3, §4, §5, §6, §7

[3] = peak current amplitude, co-application with EC20 L-glutamate and 30 μM glycine, HEK293
[4] = peak current amplitude, co-application with EC20 L-glutamate and 30 μM glycine, read-out: GluN2B PCA EC50
[5] = peak current amplitude, co-application with EC20 L-glutamate and 30 μM glycine
[6] = peak current amplitude, co-application with EC20 L-glutamate and 30 μM glycine, HEK293, read-out: GluN2A PCA EC50

Sequence of GluN2B glutamate receptors expressed in mammalian cells (Q13224 27-1484, other chains not shown): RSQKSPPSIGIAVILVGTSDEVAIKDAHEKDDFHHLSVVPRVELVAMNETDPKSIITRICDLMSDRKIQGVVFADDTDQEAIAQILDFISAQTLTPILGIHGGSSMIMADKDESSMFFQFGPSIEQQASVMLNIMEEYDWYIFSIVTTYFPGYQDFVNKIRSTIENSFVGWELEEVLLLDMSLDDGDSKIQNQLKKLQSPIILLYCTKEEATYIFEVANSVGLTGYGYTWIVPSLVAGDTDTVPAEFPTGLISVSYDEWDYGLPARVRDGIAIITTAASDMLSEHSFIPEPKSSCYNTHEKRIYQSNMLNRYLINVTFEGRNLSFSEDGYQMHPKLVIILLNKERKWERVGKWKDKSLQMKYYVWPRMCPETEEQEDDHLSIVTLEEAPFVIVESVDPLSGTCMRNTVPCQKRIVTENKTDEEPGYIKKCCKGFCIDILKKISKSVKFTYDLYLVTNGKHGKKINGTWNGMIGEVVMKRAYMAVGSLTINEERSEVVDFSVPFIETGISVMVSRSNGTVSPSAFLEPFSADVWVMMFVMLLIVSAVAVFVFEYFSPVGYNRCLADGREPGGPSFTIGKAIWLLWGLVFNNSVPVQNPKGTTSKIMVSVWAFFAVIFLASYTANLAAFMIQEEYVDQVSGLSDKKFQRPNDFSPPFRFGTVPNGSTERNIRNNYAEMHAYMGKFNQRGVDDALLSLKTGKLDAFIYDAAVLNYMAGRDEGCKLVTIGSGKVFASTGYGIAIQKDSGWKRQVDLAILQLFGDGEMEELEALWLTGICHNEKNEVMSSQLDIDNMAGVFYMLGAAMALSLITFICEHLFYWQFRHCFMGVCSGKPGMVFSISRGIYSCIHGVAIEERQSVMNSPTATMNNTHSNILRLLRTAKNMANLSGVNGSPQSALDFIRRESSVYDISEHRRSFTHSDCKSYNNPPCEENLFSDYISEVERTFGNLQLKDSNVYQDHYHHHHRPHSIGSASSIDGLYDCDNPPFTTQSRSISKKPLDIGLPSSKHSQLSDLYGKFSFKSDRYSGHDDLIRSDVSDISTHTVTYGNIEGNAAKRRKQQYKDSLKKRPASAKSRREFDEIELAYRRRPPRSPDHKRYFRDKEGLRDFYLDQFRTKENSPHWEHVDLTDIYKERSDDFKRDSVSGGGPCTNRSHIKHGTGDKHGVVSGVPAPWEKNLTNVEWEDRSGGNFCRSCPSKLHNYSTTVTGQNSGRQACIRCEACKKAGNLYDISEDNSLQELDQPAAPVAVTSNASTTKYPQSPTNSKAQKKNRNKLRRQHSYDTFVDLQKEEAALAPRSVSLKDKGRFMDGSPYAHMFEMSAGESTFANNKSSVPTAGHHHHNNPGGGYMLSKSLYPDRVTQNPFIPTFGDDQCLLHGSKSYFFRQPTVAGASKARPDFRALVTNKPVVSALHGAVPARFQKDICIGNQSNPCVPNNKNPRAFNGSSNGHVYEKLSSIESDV
Sequence of GluN1/GluN2A glutamate receptors (human GRIN1/GRIN2A) expressed in HEK293 cells (Q12879 whole entry, looked up, other chains not shown): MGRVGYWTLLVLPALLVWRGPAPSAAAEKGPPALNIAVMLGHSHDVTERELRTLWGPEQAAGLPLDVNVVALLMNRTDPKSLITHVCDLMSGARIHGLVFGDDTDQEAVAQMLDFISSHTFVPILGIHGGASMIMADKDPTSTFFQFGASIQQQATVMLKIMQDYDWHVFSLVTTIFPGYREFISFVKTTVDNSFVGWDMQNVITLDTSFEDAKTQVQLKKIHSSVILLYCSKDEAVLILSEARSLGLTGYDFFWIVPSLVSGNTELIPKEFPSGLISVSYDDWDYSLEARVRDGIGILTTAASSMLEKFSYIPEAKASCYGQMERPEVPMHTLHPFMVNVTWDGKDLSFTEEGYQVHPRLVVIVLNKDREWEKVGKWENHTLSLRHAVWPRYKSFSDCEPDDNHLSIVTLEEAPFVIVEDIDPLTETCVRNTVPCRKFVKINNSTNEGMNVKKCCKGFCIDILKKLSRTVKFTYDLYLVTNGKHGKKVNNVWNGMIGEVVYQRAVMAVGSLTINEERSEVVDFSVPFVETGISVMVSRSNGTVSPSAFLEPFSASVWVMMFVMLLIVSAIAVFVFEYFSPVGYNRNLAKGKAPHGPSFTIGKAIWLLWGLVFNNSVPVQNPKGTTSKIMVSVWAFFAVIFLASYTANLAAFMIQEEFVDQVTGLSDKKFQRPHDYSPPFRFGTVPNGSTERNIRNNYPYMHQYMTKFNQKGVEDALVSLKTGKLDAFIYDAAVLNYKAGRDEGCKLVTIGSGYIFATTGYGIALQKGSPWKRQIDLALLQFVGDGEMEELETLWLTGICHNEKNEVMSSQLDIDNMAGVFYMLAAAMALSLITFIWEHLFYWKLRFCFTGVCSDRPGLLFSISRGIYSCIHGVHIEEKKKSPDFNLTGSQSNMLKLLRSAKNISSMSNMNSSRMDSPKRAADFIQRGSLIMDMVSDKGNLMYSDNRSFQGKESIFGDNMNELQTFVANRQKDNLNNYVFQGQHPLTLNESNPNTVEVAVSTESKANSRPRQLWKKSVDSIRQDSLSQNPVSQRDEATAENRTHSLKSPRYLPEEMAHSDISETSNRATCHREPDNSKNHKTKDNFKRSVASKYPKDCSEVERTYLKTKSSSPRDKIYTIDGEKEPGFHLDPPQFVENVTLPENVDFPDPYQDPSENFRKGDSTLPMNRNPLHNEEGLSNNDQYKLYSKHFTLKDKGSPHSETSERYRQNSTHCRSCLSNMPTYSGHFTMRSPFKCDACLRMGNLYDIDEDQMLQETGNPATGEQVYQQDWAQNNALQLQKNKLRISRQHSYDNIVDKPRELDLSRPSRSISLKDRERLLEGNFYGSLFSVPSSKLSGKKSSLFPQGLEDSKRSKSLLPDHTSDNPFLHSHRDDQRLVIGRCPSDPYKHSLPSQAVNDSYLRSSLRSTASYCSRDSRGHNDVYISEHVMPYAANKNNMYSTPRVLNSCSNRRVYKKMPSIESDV

| Compound | EC50 [1] | Emax [1, 3] | EC50 [2, 4] | Emax [2, 5] | EC50 [1, 6] | EC50 [2] | Emax [2] |
| --- | --- | --- | --- | --- | --- | --- | --- |
| CC[C@]1(O)CC[C@H]2C(=CC[C@@H]3[C@@H]2CC[C@]2(C)[C@@H]([C@H](C)[C@H](O)CCC(C)C)CC[C@@H]32)C1 [Compound 3, (3S,8R,9S,10R,13S,14S,17R)-3-ethyl-17-((2S,3R)-3-hydroxy-6-methylheptan-2-yl)-13-methyl-2,3,4,7,8,9,10,11,12,13,14,15,16,17-tetradecahydro-1H-cyclopenta[a]phenanthren-3-ol] | > 1000 nM | < 100% | > 1000 nM | < 100% |  |  |  |
| C[C@H]([C@H](O)C[C@H](O)c1ccccc1)[C@H]1CC[C@H]2[C@@H]3CC[C@H]4C[C@](O)(C(F)(F)F)CC[C@]4(C)[C@H]3CC[C@]12C [Compound 13, (1S,3R,4S)-4-((3S,5S,8R,9S,10S,13S,14S,17R)-3-hydroxy-10,13-dimethyl-3-(trifluoromethyl)hexadecahydro-1H-cyclopenta[a]phenanthren-17-yl)-1-phenylpentane-1,3-diol] |  | < 100% |  |  | 1 to 100 nM | 1 to 100 nM | 100 to 500% |
| CC[C@]1(O)CC[C@@]2(C)[C@@H](CC[C@@H]3[C@@H]2CC[C@]2(C)[C@@H]([C@H](C)[C@H](O)CCC(C)C)CC[C@@H]32)C1 [Compound 24, (3S,5S,8R,9S,10S,13S,14S,17R)-3-ethyl-17-((2S,3R)-3-hydroxy-6-methylheptan-2-yl)-10,13-dimethylhexadecahydro-1H-cyclopenta[a]phenanthren-3-ol] |  | < 100% |  |  | > 1000 nM | > 1000 nM | < 100% |
| C[C@@H]([C@H]1CC[C@H]2[C@@H]3CC[C@H]4C[C@](O)(C(F)(F)F)CC[C@]4(C)[C@H]3CC[C@]12C)[C@@H](O)C[C@H](O)c1ccccc1 [Compound 25, (1S,3S,4S)-4-((3S,5S,8R,9S,10S,13S,14S,17R)-3-hydroxy-10,13-dimethyl-3-(trifluoromethyl)hexadecahydro-1H-cyclopenta[a]phenanthren-17-yl)-1-phenylpentane-1,3-diol] |  | < 100% |  |  | > 1000 nM | > 1000 nM | < 100% |
| CC[C@]1(O)CC[C@H]2[C@@H](CC[C@@H]3[C@@H]2CC[C@]2(C)[C@@H]([C@H](C)[C@@H](O)CCC(C)C)CC[C@@H]32)C1 [Compound 28, (3S,5S,8R,9R,10S,13S,14S,17R)-3-ethyl-17-((2S,3S)-3-hydroxy-6-methylheptan-2-yl)-13-methylhexadecahydro-1H-cyclopenta[a]phenanthren-3-ol] | > 1000 nM | < 100% | > 1000 nM | 100 to 500% |  |  |  |
| CC[C@]1(O)CC[C@@]2(C)[C@@H](CC[C@@H]3[C@@H]2CC[C@]2(C)[C@@H]([C@H](C)[C@@H](O)CCC(C)C)CC[C@@H]32)C1 [Compound 29, (3S,5S,8R,9S,10S,13S,14S,17R)-3-ethyl-17-((2S,3S)-3-hydroxy-6-methylheptan-2-yl)-10,13-dimethylhexadecahydro-1H-cyclopenta[a]phenanthren-3-ol] |  | < 100% |  |  | > 1000 nM | > 1000 nM | < 100% |
| CC(C)CC[C@@H](O)[C@@H](C)[C@H]1CC[C@H]2[C@@H]3CC=C4C[C@@](C)(O)CC[C@]4(C)[C@H]3CC[C@]12C [Compound 30, (3S,8S,9S,10R,13S,14S,17R)-17-((2S,3R)-3-hydroxy-6-methylheptan-2-yl)-3,10,13-trimethyl-2,3,4,7,8,9,10,11,12,13,14,15,16,17-tetradecahydro-1H-cyclopenta[a]phenanthren-3-ol] | > 1000 nM | 100 to 500% | > 1000 nM | 100 to 500% |  |  |  |
| C[C@H]([C@H](O)C[C@@H](O)c1ccccc1)[C@H]1CC[C@H]2[C@@H]3CC[C@H]4C[C@](O)(C(F)(F)F)CC[C@]4(C)[C@H]3CC[C@]12C [Compound 31, (1R,3R,4S)-4-((3S,5S,8R,9S,10S,13S,14S,17R)-3-hydroxy-10,13-dimethyl-3-(trifluoromethyl)hexadecahydro-1H-cyclopenta[a]phenanthren-17-yl)-1-phenylpentane-1,3-diol] |  | 100 to 500% |  |  | 1 to 100 nM | 100 to 1000 nM | 100 to 500% |
| CC(C)CC[C@@H](O)[C@@H](C)[C@H]1CC[C@H]2[C@@H]3CC[C@@H]4C[C@@](C)(O)CC[C@]4(C)[C@H]3CC[C@]12C [Compound 36, (3S,5R,8R,9S,10S,13S,14S,17R)-17-((2S,3R)-3-hydroxy-6-methylheptan-2-yl)-3,10,13-trimethylhexadecahydro-1H-cyclopenta[a]phenanthren-3-ol] | > 1000 nM | < 100% | > 1000 nM | < 100% |  |  |  |
| CC[C@]1(O)CC[C@H]2C(=CC[C@@H]3[C@@H]2CC[C@]2(C)[C@@H]([C@H](C)[C@@H](O)CCC(C)C)CC[C@@H]32)C1 [Compound 44, (3S,8R,9S,10R,13S,14S,17R)-3-ethyl-17-((2S,3S)-3-hydroxy-6-methylheptan-2-yl)-13-methyl-2,3,4,7,8,9,10,11,12,13,14,15,16,17-tetradecahydro-1H-cyclopenta[a]phenanthren-3-ol] | > 1000 nM | < 100% | > 1000 nM | < 100% |  |  |  |
| CC(C)CC[C@@H](O)[C@@H](C)[C@H]1CC[C@H]2[C@@H]3CC[C@H]4C[C@@](C)(O)CC[C@]4(C)[C@H]3CC[C@]12C [Compound 47, (3S,5S,8R,9S,10S,13S,14S,17R)-17-((2S,3R)-3-hydroxy-6-methylheptan-2-yl)-3,10,13-trimethylhexadecahydro-1H-cyclopenta[a]phenanthren-3-ol] | > 1000 nM | < 100% | > 1000 nM | < 100% |  |  |  |
| CC[C@]1(O)CC[C@@]2(C)C(=CC[C@H]3[C@@H]4CC[C@H]([C@H](C)[C@@H](O)CC5CCC(C)(C)CC5)[C@@]4(C)CC[C@@H]32)C1 [Compound 49, (3S,8S,9S,10R,13S,14S,17R)-17-((2S,3S)-4-(4,4-dimethylcyclohexyl)-3-hydroxybutan-2-yl)-3-ethyl-10,13-dimethyl-2,3,4,7,8,9,10,11,12,13,14,15,16,17-tetradecahydro-1H-cyclopenta[a]phenanthren-3-ol] | > 1000 nM | < 100% | > 1000 nM | < 100% |  |  |  |
| CC[C@]1(O)CC[C@@]2(C)C(=CC[C@H]3[C@@H]4CC[C@H]([C@H](C)[C@H](O)CCC(C)C)[C@@]4(C)CC[C@@H]32)C1 [Compound 52, (3S,8S,9S,10R,13S,14S,17R)-3-ethyl-17-((2S,3R)-3-hydroxy-6-methylheptan-2-yl)-10,13-dimethyl-2,3,4,7,8,9,10,11,12,13,14,15,16,17-tetradecahydro-1H-cyclopenta[a]phenanthren-3-ol] | > 1000 nM | < 100% | > 1000 nM | < 100% |  |  |  |
| CC(C)CC[C@H](O)[C@@H](C)[C@H]1CC[C@H]2[C@@H]3CC=C4C[C@@](C)(O)CC[C@]4(C)[C@H]3CC[C@]12C [Compound 75, (3S,8S,9S,10R,13S,14S,17R)-17-((2S,3S)-3-hydroxy-6-methylheptan-2-yl)-3,10,13-trimethyl-2,3,4,7,8,9,10,11,12,13,14,15,16,17-tetradecahydro-1H-cyclopenta[a]phenanthren-3-ol] | > 1000 nM | < 100% | > 1000 nM | < 100% |  |  |  |
| CC[C@]1(O)CC[C@@]2(C)C(=CC[C@H]3[C@@H]4CC[C@H]([C@H](C)[C@@H](O)CCC(C)C)[C@@]4(C)CC[C@@H]32)C1 [Compound 77, (3S,8S,9S,10R,13S,14S,17R)-3-ethyl-17-((2S,3S)-3-hydroxy-6-methylheptan-2-yl)-10,13-dimethyl-2,3,4,7,8,9,10,11,12,13,14,15,16,17-tetradecahydro-1H-cyclopenta[a]phenanthren-3-ol] | > 1000 nM | < 100% | > 1000 nM | < 100% |  |  |  |
